This experiment concerns the target T1, interaction between biotinylated human S100A9 and human RAGE-Fc (Homo sapiens, UniProt P06702).
T1 construct: made in house; host or cells: E. coli BL21(DE3)/pET1120 (pLR757)
T1 sequence (P06702 1-114): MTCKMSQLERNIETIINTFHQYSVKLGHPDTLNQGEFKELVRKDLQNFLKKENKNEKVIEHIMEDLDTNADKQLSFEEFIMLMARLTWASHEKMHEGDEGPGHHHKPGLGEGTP
Briefly: AlphaScreen inhibition assay, Biot-hS100A9:hRAGE-Fc (S100A9-RAGE inhibition assay). Type of experiment: binding. To be noted: biot-hS100A9 and rhRAGE-Fc, Ca2+ and Zn2+ in buffer. Put shortly: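 Biotinylated human S100A9, in HBS-P with CaCl2 and ZnCl2, preincubated 1 h at room temperature in the dark with compound (final DMSO ≤1.25%), then combined with rhRAGE-Fc on protein A Acceptor beads plus streptavidin Donor beads (20 μg/mL each). Protein levels batch-dependent; percent inhibition from AlphaScreen signal vs DMSO-only control.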

As a reminder, the IC50 is the concentration that inhibits the measured activity by half. For `Cc1cc2nc3n(c2cc1C)C(NC(=O)CCc1ccccc1Cl)(C(F)(F)F)C(=O)N3` (stereo not drawn) [Example 16, 3-(2-chlorophenyl)-N-[10,11-dimethyl-4-oxo-3-(trifluoromethyl)-2,5,7-triazatricyclo-[6.4.0.0^2,6]dodeca-1(8),6,9,11-tetraen-3-yl]propanamide], the IC50 was 1300 nM.

With `O=C(NC1(C(F)(F)F)C(=O)Nc2nc3cc(Cl)c(Cl)cc3n21)c1ccccc1` (stereo not drawn) [Example 38, N-[10,11-dichloro-4-oxo-3-(trifluoromethyl)-2,5,7-triazatricyclo[6.4.0.0^2,6]dodeca-1(8),6,9,11-tetraen-3-yl]benzamide], the IC50 is 1000 nM.

With `O=C(CCC1CCCC1)NC1(C(F)(F)F)C(=O)Nc2nc3c(F)c(Br)ccc3n21` (stereo not drawn) [Example 177, N-[10-bromo-9-fluoro-4-oxo-3-(trifluoromethyl)-2,5,7-triazatricyclo[6.4.0.0^2,6]dodeca-1(12),6,8,10-tetraen-3-yl]-3-cyclopentylpropanamide], the half-maximal inhibitory concentration (IC50) was 1630 nM.

Take `O=C(NC1(C(F)(F)F)C(=O)Nc2nc3cc(Cl)c(Cl)cc3n21)c1cccc(Cl)n1` (stereo not drawn) [Example 62, 6-chloro-N-[10,11-dichloro-4-oxo-3-(trifluoromethyl)-2,5,7-triazatricyclo[6.4.0.0^2,6]-dodeca-1(12),6,8,10-tetraen-3-yl]pyridine-2-carboxamide]: the IC50 was determined as 1100 nM.

As to `Cc1cc2nc3n(c2cc1C)C(NC(=O)[C@@H](C)Oc1cccc(Cl)c1)(C(F)(F)F)C(=O)N3` (single isomer, unassigned) [Example 212b], the IC50 was 4580 nM.

Consider `CCNc1cccc(C(=O)NC2(C(F)(F)F)C(=O)Nc3nc4cc(Cl)c(Cl)cc4n32)n1` (stereo not drawn) [Example 70, N-[10,11-dichloro-4-oxo-3-(trifluoromethyl)-2,5,7-triazatricyclo[6.4.0.0^2,6]dodeca-1(12),6,8,10-tetraen-3-yl]-6-(ethylamino)pyridine-2-carboxamide], for which the IC50 worked out at 1300 nM.

`O=C(CCC1CCCC1)NC1(C(F)(F)F)C(=O)Nc2nc3cc4c(cc3n21)CCC4` (stereo not drawn) [Example 78, 3-cyclopentyl-N-[12-oxo-11-(trifluoromethyl)-10,13,15-triazatetracyclo[7.6.0.0^3,7.0^10,14]-pentadeca-1(9),2,7,14-tetraen-11-yl]propanamide]: the concentration for half-maximal inhibition (IC50) turned out to be 1200 nM.

On to `O=C(NC1(C(F)(F)F)C(=O)Nc2nc3cc(Cl)c(Cl)cc3n21)c1cccc(Cl)c1` (stereo not drawn) [Example 56, 3-chloro-N-[10,11-dichloro-4-oxo-3-(trifluoromethyl)-2,5,7-triazatricyclo[6.4.0.0^2,6]-dodeca-1(12),6,8,10-tetraen-3-yl]benzamide], for which the IC50 amounted to 1400 nM.

With `CC(=O)N1CC(C(=O)NC2(C(F)(F)F)C(=O)Nc3nc4cc(Cl)c(Cl)cc4n32)C1` (stereo not drawn) [Example 49, 1-acetyl-N-[10,11-dichloro-4-oxo-3-(trifluoromethyl)-2,5,7-triazatricyclo-[6.4.0.0^2,6]-dodeca-1(12),6,8,10-tetraen-3-yl]azetidine-3-carboxamide], the IC50 stood at 3900 nM.

Turning to `CS(=O)(=O)NC(=O)c1cccc2c1nc1n2C(NC(=O)CCC2CCCC2)(C(F)(F)F)C(=O)N1` (stereo not drawn) [Example 166, 3-(3-cyclopentylpropanamido)-N-methanesulfonyl-4-oxo-3-(trifluoromethyl)-2,5,7-triazatricyclo[6.4.0.0^2,6]dodeca-1(12),6,8,10-tetraene-9-carboxamide], the IC50 amounted to 400 nM.

Consider `O=C(CCC1CCCC1)NC1(C(F)(F)F)C(=O)Nc2nc3c(C(=O)O)cccc3n21` (single isomer, unassigned) [Example 231a, 3-(3-cyclopentylpropanamido)-4-oxo-3-(trifluoromethyl)-2,5,7-triazatricyclo[6.4.0.0^2,6]dodeca-1(12),6,8,10-tetraene-9-carboxylic acid], for which the IC50 came to 660 nM.

`Cc1cc2nc3n(c2cc1C)C(NC(=O)CCC1CCCC1)(C(F)(F)F)C(=O)N3` (single isomer, unassigned) [Example 218a, 3-cyclopentyl-N-[10,11-dimethyl-4-oxo-3-(trifluoromethyl)-2,5,7-triazatricyclo[6.4.0.0^2,6]dodeca-1(12),6,8,10-tetraen-3-yl]propanamide]: the concentration for half-maximal inhibition (IC50) worked out at 3130 nM.

For `COCCNc1cccc(C(=O)NC2(C(F)(F)F)C(=O)Nc3nc4cc(Cl)c(Cl)cc4n32)n1` (stereo not drawn) [Example 71, N-[10,11-dichloro-4-oxo-3-(trifluoromethyl)-2,5,7-triazatricyclo[6.4.0.0^2,6]dodeca-1(12),6,8,10-tetraen-3-yl]-6-[(2-methoxyethyl)amino]pyridine-2-carboxamide], the IC50 turned out to be 200 nM.

As to `Cc1cc2nc3n(c2cc1C)C(NC(=O)c1ccc(OCC(F)(F)F)nc1)(C(F)(F)F)C(=O)N3` (stereo not drawn) [Example 21, N-[10,11-dimethyl-4-oxo-3-(trifluoromethyl)-2,5,7-triazatricyclo[6.4.0.0^2,6]dodeca-1(8),6,9,11-tetraen-3-yl]-6-(2,2,2-trifluoroethoxy)pyridine-3-carboxamide], the IC50 is 4000 nM.

As for `COC(=O)c1cccc(C(=O)NC2(C(F)(F)F)C(=O)Nc3nc4cc(Cl)c(Cl)cc4n32)n1` (stereo not drawn) [Example 95, methyl 6-{[10,11-dichloro-4-oxo-3-(trifluoromethyl)-2,5,7-triazatricyclo[6.4.0.0^2,6]dodeca-1(8),6,9,11-tetraen-3-yl]carbamoyl}pyridine-2-carboxylate], the 50% inhibitory concentration (IC50) stood at 1080 nM.

Consider `O=C(CCC1CCCC1)NC1(C(F)(F)F)C(=O)Nc2nc3c(Cl)cc(Cl)cc3n21` (stereo not drawn) [Example 84, 3-cyclopentyl-N-[9,11-dichloro-4-oxo-3-(trifluoromethyl)-2,5,7-triazatricyclo[6.4.0.0^2,6]-dodeca-1(12),6,8,10-tetraen-3-yl]propanamide], for which the IC50 stood at 1400 nM.

In the case of `CN(C)CCNc1cccc(C(=O)NC2(C(F)(F)F)C(=O)Nc3nc4cc(Cl)c(Cl)cc4n32)n1` (stereo not drawn) [Example 93, N-[10,11-dichloro-4-oxo-3-(trifluoromethyl)-2,5,7-triazatricyclo[6.4.0.0^2,6]dodeca-1(8),6,9,11-tetraen-3-yl]-6-{[2-(dimethylamino)ethyl]amino}pyridine-2-carboxamide], the half-maximal inhibitory concentration (IC50) was found to be 600 nM.

Consider `N#Cc1cccc(C(=O)NC2(C(F)(F)F)C(=O)Nc3nc4cc(Cl)c(Cl)cc4n32)c1` (stereo not drawn) [Example 100, 3-cyano-N-[10,11-dichloro-4-oxo-3-(trifluoromethyl)-2,5,7-triazatricyclo[6.4.0.0^2,6]dodeca-1(8),6,9,11-tetraen-3-yl]benzamide], for which the half-inhibitory concentration (IC50) amounted to 2020 nM.

For the compound `CC(C)(C)c1ccc(-c2cccc3c2nc2n3C(NC(=O)CCC3CCCC3)(C(F)(F)F)C(=O)N2)cc1` (stereo not drawn) [Example 191, N-[9-(4-tert-butylphenyl)-4-oxo-3-(trifluoromethyl)-2,5,7-triazatricyclo[6.4.0.0^2,6]dodeca-1(12),6,8,10-tetraen-3-yl]-3-cyclopentylpropanamide], the IC50 was 1490 nM.

With `CSc1ccc(-c2cccc3c2nc2n3C(NC(=O)CCC3CCCC3)(C(F)(F)F)C(=O)N2)cc1` (stereo not drawn) [Example 232, 3-cyclopentyl-N-{9-[4-(methylsulfanyl)phenyl]-4-oxo-3-(trifluoromethyl)-2,5,7-triazatricyclo[6.4.0.0^2,6]dodeca-1(12),6,8,10-tetraen-3-yl}propanamide], the concentration for half-maximal inhibition (IC50) came out at 540 nM.

On to `O=C(CCC1CCCC1)NC1(C(F)(F)F)C(=O)Nc2nc3c(Cl)cccc3n21` (stereo not drawn) [Example 85, N-[9-chloro-4-oxo-3-(trifluoromethyl)-2,5,7-triazatricyclo[6.4.0.0^2,6]dodeca-1(12),6,8,10-tetraen-3-yl]-3-cyclopentylpropanamide], for which the half-maximal inhibitory concentration (IC50) worked out at 2600 nM.

Turning to `O=C(CCC1CCCC1)NC1(C(F)(F)F)C(=O)Nc2nc3c(Br)cc(Cl)cc3n21` (stereo not drawn) [Example 181, N-[9-bromo-11-chloro-4-oxo-3-(trifluoromethyl)-2,5,7-triazatricyclo[6.4.0.0^2,6]dodeca-1(12),6,8,10-tetraen-3-yl]-3-cyclopentylpropanamide], the half-maximal inhibitory concentration (IC50) is 1450 nM.

In the case of `Cc1cc2nc3n(c2cc1C)C(NC(=O)[C@@H](C)Oc1cccc(Cl)c1)(C(F)(F)F)C(=O)N3` (single isomer, unassigned) [Example 212a], the 50% inhibitory concentration (IC50) was determined as 610 nM.

Turning to `CCNc1cccc(C(=O)NC2(C(F)(F)F)C(=O)Nc3nc4cc(C)c(C)cc4n32)n1` (stereo not drawn) [Example 67, N-[10,11-dimethyl-4-oxo-3-(trifluoromethyl)-2,5,7-triazatricyclo[6.4.0.0^2,6]dodeca-1(12),6,8,10-tetraen-3-yl]-6-(ethylamino)pyridine-2-carboxamide], the IC50 turned out to be 2000 nM.

Consider `Cc1cc2nc3n(c2cc1C)C(NC(=O)[C@@H](O)c1ccccc1)(C(F)(F)F)C(=O)N3` (single isomer, unassigned) [Example 146a], for which the IC50 is 5390 nM.

`COCCNc1nc(C(=O)NC2(C(F)(F)F)C(=O)Nc3nc4c(C#N)c(Cl)ccc4n32)cs1` (stereo not drawn) [Example 139, N-[10-chloro-9-cyano-4-oxo-3-(trifluoromethyl)-2,5,7-triazatricyclo[6.4.0.0^2,6]dodeca-1(8),6,9,11-tetraen-3-yl]-2-[(2-methoxyethyl)amino]-1,3-thiazole-4-carboxamide]: the IC50 was found to be 1270 nM.

As for `Cc1cc2nc3n(c2cc1C)C(NC(=O)[C@@H](C)CC1CCCC1)(C(F)(F)F)C(=O)N3` (mixture of isomers) [Example 145, (2S)-3-cyclopentyl-N-[10,11-dimethyl-4-oxo-3-(trifluoromethyl)-2,5,7-triazatricyclo[6.4.0.0^2,6]dodeca-1(8),6,9,11-tetraen-3-yl]-2-methylpropanamide], the IC50 came to 3120 nM.
